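Each compound was tested at five concentrations against cells in 96-well plates for 48 hours. TGI: concentration producing complete growth inhibition.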
Assays:
Test in all cases: inhibition of tumour cell growth, NCI panel, 48 h
[1] = tested on: SR leukemia
[2] = tested on: EKVX NSCLC
[3] = tested on: MCF7 breast
[4] = tested on: DU-145 prostate
[5] = tested on: SF-295 CNS
[6] = tested on: BT-549 breast
[7] = tested on: LOX IMVI melanoma
[8] = tested on: NCI-H522 lung
[9] = tested on: SW-620 colon
[10] = tested on: SF-268 CNS
[11] = tested on: HOP-62 NSCLC
[12] = tested on: 786-0 renal
[13] = tested on: OVCAR-4 ovarian
[14] = tested on: A498 renal
[15] = tested on: HT29 colon
[16] = tested on: SK-MEL-28 melanoma
[17] = tested on: UACC-257 melanoma
[18] = tested on: SK-MEL-5 melanoma
[19] = tested on: TK-10 renal
[20] = tested on: SNB-75 CNS
[21] = tested on: MDA-MB-435
[22] = tested on: KM12 colon
[23] = tested on: U251 CNS
[24] = tested on: RPMI-8226 leukemia
[25] = tested on: HL-60(TB) leukemia
[26] = tested on: K-562 leukemia
[27] = tested on: SN12C renal
[28] = tested on: CAKI-1 renal
[29] = tested on: SK-OV-3 ovarian
[30] = tested on: OVCAR-8 ovarian
[31] = tested on: A549 NSCLC
[32] = tested on: NCI-H460 lung
[33] = tested on: HCT-116 colon
[34] = tested on: T-47D breast
[35] = tested on: ACHN renal
[36] = tested on: CCRF-CEM leukemia
[37] = tested on: HCT-15 colon
[38] = tested on: SNB-19 CNS
[39] = tested on: OVCAR-5 ovarian
[40] = tested on: MDA-N
[41] = tested on: RXF 393 renal
[42] = tested on: HS 578T breast
[43] = tested on: MDA-MB-231 breast
[44] = tested on: HCC-2998 colon
[45] = tested on: MALME-3M melanoma
[46] = tested on: UACC-62 melanoma
[47] = tested on: IGROV1 ovarian
[48] = tested on: M14 melanoma
[49] = tested on: NCI/ADR-RES ovarian
[50] = tested on: UO-31 renal
[51] = tested on: SK-MEL-2 melanoma
[52] = tested on: NCI-H23 lung
[53] = tested on: OVCAR-3 ovarian
[54] = tested on: HOP-92 NSCLC
[55] = tested on: COLO 205 colon
[56] = tested on: PC-3 prostate
[57] = tested on: NCI-H226 lung
[58] = tested on: MOLT-4 leukemia
[59] = tested on: SF-539 CNS

Structure (SMILES): C/C(=N\O)c1ccc2cc(Br)c3ccccc3c2c1
- TGI [1]: > 100 µM
- TGI [2]: 45.9 µM
- TGI [3]: 35.2 µM
- TGI [4]: > 100 µM
- TGI [5]: 37.5 µM
- TGI [6]: 64 µM
- TGI [7]: 32.8 µM
- TGI [8]: 33 µM
- TGI [9]: > 100 µM
- TGI [10]: > 100 µM
- TGI [11]: 46.8 µM
- TGI [12]: 43 µM
- TGI [13]: > 100 µM
- TGI [14]: 35.4 µM
- TGI [15]: 20.5 µM
- TGI [16]: 42.6 µM
- TGI [17]: 33.2 µM
- TGI [18]: 32 µM
- TGI [19]: 39.8 µM
- TGI [20]: > 100 µM
- TGI [21]: 69.9 µM
- TGI [22]: 32.6 µM
- TGI [23]: 28.7 µM
- TGI [24]: 50.9 µM
- TGI [25]: 44.7 µM
- TGI [26]: > 100 µM
- TGI [27]: 48.3 µM
- TGI [28]: > 100 µM
- TGI [29]: > 100 µM
- TGI [30]: 60.9 µM
- TGI [31]: > 100 µM
- TGI [32]: 43.2 µM
- TGI [33]: 25.8 µM
- TGI [34]: 93.3 µM
- TGI [35]: > 100 µM
- TGI [36]: 61.1 µM
- TGI [37]: 34.7 µM
- TGI [38]: > 100 µM
- TGI [39]: 25.8 µM
- TGI [40]: 43.6 µM
- TGI [41]: 31.9 µM
- TGI [42]: 88.2 µM
- TGI [43]: 32.1 µM
- TGI [44]: 29.7 µM
- TGI [45]: 35.3 µM
- TGI [46]: 47.2 µM
- TGI [47]: > 100 µM
- TGI [48]: 41.2 µM
- TGI [49]: 47.5 µM
- TGI [50]: 36.7 µM
- TGI [51]: 32 µM
- TGI [52]: 44.4 µM
- TGI [53]: 33.3 µM
- TGI [54]: 46.6 µM

Structure (SMILES): c1ccc(CNCCN2CCNCC2)nc1
- TGI [1]: > 100 µM
- TGI [55]: > 100 µM
- TGI [2]: > 100 µM
- TGI [3]: > 100 µM
- TGI [5]: > 100 µM
- TGI [6]: > 100 µM
- TGI [7]: > 100 µM
- TGI [56]: > 100 µM
- TGI [57]: > 100 µM
- TGI [8]: > 100 µM
- TGI [9]: > 100 µM
- TGI [10]: > 100 µM
- TGI [11]: > 100 µM
- TGI [12]: > 100 µM
- TGI [13]: > 100 µM
- TGI [14]: > 100 µM
- TGI [15]: > 100 µM
- TGI [16]: > 100 µM
- TGI [17]: > 100 µM
- TGI [18]: > 100 µM
- TGI [19]: > 100 µM
- TGI [20]: > 100 µM
- TGI [21]: > 100 µM
- TGI [22]: > 100 µM
- TGI [23]: > 100 µM
- TGI [24]: > 100 µM
- TGI [26]: > 100 µM
- TGI [27]: > 100 µM
- TGI [28]: > 100 µM
- TGI [29]: > 100 µM
- TGI [30]: > 100 µM
- TGI [31]: > 100 µM
- TGI [32]: > 100 µM
- TGI [33]: > 100 µM
- TGI [34]: > 100 µM
- TGI [35]: > 100 µM
- TGI [58]: > 100 µM
- TGI [37]: > 100 µM
- TGI [38]: > 100 µM
- TGI [39]: > 100 µM
- TGI [40]: > 100 µM
- TGI [41]: > 100 µM
- TGI [42]: > 100 µM
- TGI [43]: > 100 µM
- TGI [45]: > 100 µM
- TGI [46]: > 100 µM
- TGI [47]: > 100 µM
- TGI [48]: > 100 µM
- TGI [49]: > 100 µM
- TGI [50]: > 100 µM
- TGI [59]: > 100 µM
- TGI [51]: > 100 µM
- TGI [52]: > 100 µM
- TGI [53]: > 100 µM
- TGI [54]: > 100 µM

Structure (SMILES): COc1ccccc1N1C(=O)/C(=C\c2cc(OC)c(OC)c(OC)c2)SC1c1ccccc1 (stereo not given)
- TGI [1]: 72.7 µM
- TGI [55]: > 100 µM
- TGI [2]: > 100 µM
- TGI [3]: > 100 µM
- TGI [4]: > 100 µM
- TGI [5]: > 100 µM
- TGI [6]: > 100 µM
- TGI [7]: > 100 µM
- TGI [57]: > 100 µM
- TGI [8]: > 100 µM
- TGI [9]: > 100 µM
- TGI [10]: > 100 µM
- TGI [11]: > 100 µM
- TGI [12]: > 100 µM
- TGI [13]: > 100 µM
- TGI [14]: > 100 µM
- TGI [15]: > 100 µM
- TGI [16]: > 100 µM
- TGI [17]: > 100 µM
- TGI [18]: > 100 µM
- TGI [19]: > 100 µM
- TGI [21]: 53.5 µM
- TGI [22]: > 100 µM
- TGI [23]: > 100 µM
- TGI [24]: 25.4 µM
- TGI [25]: > 100 µM
- TGI [26]: 38.2 µM
- TGI [27]: > 100 µM
- TGI [28]: > 100 µM
- TGI [29]: > 100 µM
- TGI [30]: > 100 µM
- TGI [31]: > 100 µM
- TGI [32]: > 100 µM
- TGI [33]: > 100 µM
- TGI [34]: > 100 µM
- TGI [35]: > 100 µM
- TGI [58]: > 100 µM
- TGI [36]: 45.5 µM
- TGI [37]: > 100 µM
- TGI [38]: > 100 µM
- TGI [39]: > 100 µM
- TGI [40]: 42.5 µM
- TGI [41]: > 100 µM
- TGI [42]: > 100 µM
- TGI [43]: > 100 µM
- TGI [44]: > 100 µM
- TGI [45]: 81.4 µM
- TGI [46]: > 100 µM
- TGI [48]: 91.7 µM
- TGI [49]: > 100 µM
- TGI [50]: > 100 µM
- TGI [59]: > 100 µM
- TGI [51]: > 100 µM
- TGI [52]: > 100 µM
- TGI [53]: > 100 µM
- TGI [54]: > 100 µM

Reference: PubChem BioAssay (NCI)
